Reference: PMC9235293 (European Journal of Medicinal Chemistry, 2022)

CC(C)[C@H](NC(=O)OCc1ccccc1)C(=O)N[C@@H](Cc1cccs1)C(=O)N[C@H](C=O)C[C@@H]1CCNC1=O [MPI15]
Solubility in DMSO: insoluble
